Source: ChEMBL document CHEMBL3507680, “University of Dundee, Gates Library screen for HepG2 cell viability”

Assay: Human HepG2 cell viability assay in 384 well format
Assay type: toxicity, cell-based
Parameters: dose 125 nL, time 70.5 hour; concentration not given beside the values
Settings: HepG2 cells, read-out: Inhibition

Structure (SMILES)	cytotoxicity at 70.5 h
CCN(CC)Cc1nc2c(o1)CN(C(=O)c1ccc3ncccc3c1)C2	-4.56%
COc1cccc(C(C(=O)O)N2CCCN(c3ccnc(C)c3)CC2)c1 (centres undefined)	-7.15%
COCCN1CCN(C(=O)c2ccc(COC)o2)[C@H]2CS(=O)(=O)C[C@H]21	11.2%
CN(Cc1ccccn1)C(=O)[C@]12COC[C@H]1CN(Cc1cnn(C)c1)C2	-15.4%
CCCNC(=O)CCC(=O)Nc1cc2sc(C)nc2cc1OC	0.815%
O=S(=O)(Nc1cnn(C2CCOCC2)c1)c1ccc(F)c(F)c1	1.31%
CNC(=O)NCC(=O)N(C)C(c1ccc(Cl)cc1)c1cccnc1 (centres undefined)	21.3%
NC(=O)C(NC(=O)COCCc1ccccc1)c1ccccc1F (centres undefined)	5.16%
CCCS(=O)(=O)N1CCCN(CCCOC)CC1	8.01%
N#Cc1ccc(C(=O)N2C[C@H](OCc3cccnc3)[C@H]3COC[C@H]32)cc1	3.47%
O=C(NCc1ccc(OCC2CC2)nc1)Nc1c(F)cccc1F	-2.96%
Cc1ccc(OCc2occc2C(=O)O)cc1	-5.9%
Cc1cccc(C(C(=O)NCCCc2nnc3ccccn23)N(C)C)c1 (centres undefined)	20.2%
Cc1ncsc1C(=O)N1CCCC(c2noc(C(C)C)n2)C1 (centres undefined)	0.861%
CN(C)C(=O)COCC1CN(C2CCC2)Cc2ncn(C)c21 (centres undefined)	22.5%
Cc1cc(C)n(C2CCCN(C(=O)c3cccc4[nH]ncc34)C2)n1 (centres undefined)	-4.99%
CCn1cc(S(=O)(=O)NCC2(N3CCOCC3)CCCCC2)c(C)n1	28.1%
O=C(CNC(=O)C1CCCC1)NCc1cnn(-c2ccc(F)cc2F)c1	-1.74%
COCCOCCC(=O)Nc1c(-c2ccc(F)cc2)ncn1C	17%
CSc1[nH]nc(NC(=O)c2cccs2)c1C#N	-10.4%
CCC1(CO)CCCN(Cc2nccn2Cc2ccccc2)C1 (centres undefined)	-4.15%
Cc1nc[nH]c1-c1nccn1-c1ccc(C(N)=O)c(N2CCCC2)c1	20.6%

Structure (SMILES)	cytotoxicity at 70.5 h
CCc1nnsc1C(=O)NCC1CN(CC(C)C)CCO1 (centres undefined)	22.5%
CCc1noc(C(C)N2CCN(CCOCC(F)(F)F)CC2)n1 (centres undefined)	-2.37%
O=C(Cc1ccc(F)cc1)NCCNS(=O)(=O)C1CCCC1	-8.77%
Cn1c(C2CC2)nc2cc(NC(=O)C3CCOC3)ccc21 (centres undefined)	-4.07%
CNC(=O)CN1CCC(CN(C)Cc2ccc(C)cc2C)CC1	27.9%
Cc1noc([C@@H]2C[C@H]3CN(Cc4scnc4C)C[C@H]3O2)n1	-4.75%
Cc1cccc(CN2CCc3ncnc(Oc4cccnc4)c3CC2)n1	27.9%
Cc1ccc(C(NC(=O)CN2CCc3cncnc3C2)C2CC2)cc1 (centres undefined)	-13.1%
Cc1cccc(C(=O)N2CCN(c3ccccc3F)CC2)n1	-7.27%
Cc1ccc(CNCc2nnc3n2CC(C(F)(F)F)CC3)cc1 (centres undefined)	1.57%
C[S+]([O-])CCCNC(=O)c1cc(Br)c2c(c1)OCCO2 (centres undefined)	-0.213%
COc1ccc(CN2CC(O)CN(C(=O)CC(C)C)CC2=O)cc1 (centres undefined)	4.85%
O=C(CCc1ccco1)N1CCCN(Cc2cscn2)CC1	11.4%
CN(C)C(=O)CN1CC=C(c2cnn(Cc3ccccc3)c2)CC1	-15.3%
O=C(Cn1c(=O)oc2ccccc21)NCC1(O)CCc2ccccc2C1 (centres undefined)	-2.64%
CCOCCS(=O)(=O)Cc1ccn(-c2cccc(F)c2)n1	-10.1%
Cc1nnc(NC(=O)CN(C)CC2CCCN2c2cccnn2)s1 (centres undefined)	18.3%
Cc1nc(C)c(CC(=O)N2C[C@@H]3CC[C@H](C2)N(CC2CCC2)C3)c(=O)[nH]1	-6.37%
CSCc1noc(-c2ccc(C)c(N3CCNC3=O)c2)n1	-9.43%
O=C(NCCCNc1ccc(C(F)(F)F)cn1)c1ccc(F)cc1F	-4.42%
Cc1ccc(N2CCCC3(COCCN(c4ccccn4)C3)C2)nn1 (centres undefined)	-8.01%
CCc1c(C)nc2cc(C3CCN(CCc4ccccc4)C3)nn2c1O (centres undefined)	-0.223%
